The subject of the data set is CCRIS mutagenicity, Ames/micronucleus/aberration tests. Briefly: CCRIS mutagenicity studies.
The mark [1] stands for this setting: Test System: AMES SALMONELLA TYPHIMURIUM, Strain/Indicator: TA98, Metabolic Activation: NONE, Method: STANDARD PLATE.
The mark [2] stands for this setting: Test System: AMES SALMONELLA TYPHIMURIUM, Strain/Indicator: TA98, Metabolic Activation: NONE, Method: PREINCUBATION
[3] abbreviates: Test System: AMES SALMONELLA TYPHIMURIUM, Strain/Indicator: TA100, Metabolic Activation: NONE, Method: PREINCUBATION

Activity calls are given as the source filed them. No rule for the calls is given here.

From PubChem BioAssay AID1259407 (Chemical Carcinogenesis Research Information System (CCRIS), 2018) come the findings set out here.

`C[C@@H]1O[C@@H]1c1ccccc1`: the mutagenic call by setting is: (Test System: AMES SALMONELLA TYPHIMURIUM, Strain/Indicator: TA98, Metabolic Activation: NONE, Method: PREINCUBATION (PHOSPHATE-BUFFERED KCL OR SOLUTE-FREE WATER MEDIA)) “inactive; negative”; (Test System: AMES SALMONELLA TYPHIMURIUM, Strain/Indicator: TA100, Metabolic Activation: NONE, Method: PREINCUBATION (PHOSPHATE-BUFFERED KCL OR SOLUTE-FREE WATER MEDIA)) “inactive; negative”; (Test System: AMES SALMONELLA TYPHIMURIUM, Strain/Indicator: TA104, Metabolic Activation: NONE, Method: PREINCUBATION (PHOSPHATE-BUFFERED KCL OR SOLUTE-FREE WATER MEDIA)) “inactive; negative”; (Test System: CHINESE HAMSTER V-79, Strain/Indicator: V-79 (HPRT)/6-THIOGUANINE, Metabolic Activation: NONE) “inactive; negative”.
Turning to `O=[N+]([O-])c1ccc2c(c1)CCc1cc([N+](=O)[O-])ccc1-2`, the mutagenic call (Test System: AMES SALMONELLA TYPHIMURIUM, Strain/Indicator: TA98(1,8-DNP6), Metabolic Activation: NONE, Method: STANDARD PLATE) is “active; positive”; the mutagenic call (Test System: AMES SALMONELLA TYPHIMURIUM, Strain/Indicator: TA98(NR), Metabolic Activation: NONE, Method: STANDARD PLATE) is “active; positive”; the mutagenic call under setting [1] is “active; positive”.
`Cc1c(C(C)C)c(=O)n(-c2ccccc2)n1C`: the mutagenic call (Test System: AMES SALMONELLA TYPHIMURIUM, Strain/Indicator: TA98, Metabolic Activation: GUINEA PIG, LIVER, S-9, PCB, Method: PREINCUBATION) is “inactive; negative”; the mutagenic call (Test System: AMES SALMONELLA TYPHIMURIUM, Strain/Indicator: TA98, Metabolic Activation: HAMSTER, LIVER, S-9, PCB, Method: PREINCUBATION) is “inactive; negative”; the mutagenic call (Test System: AMES SALMONELLA TYPHIMURIUM, Strain/Indicator: TA98, Metabolic Activation: MOUSE, LIVER, S-9, PCB, Method: PREINCUBATION) is “inactive; negative”; the mutagenic call under setting [2] was “inactive; negative”; the mutagenic call (Test System: AMES SALMONELLA TYPHIMURIUM, Strain/Indicator: TA98, Metabolic Activation: RAT, LIVER, S-9, PCB, Method: PREINCUBATION) was “inactive; negative”; the mutagenic call (Test System: AMES SALMONELLA TYPHIMURIUM, Strain/Indicator: TA100, Metabolic Activation: GUINEA PIG, LIVER, S-9, PCB, Method: PREINCUBATION) was “inactive; negative”. In addition, the mutagenic call by setting is: (Test System: AMES SALMONELLA TYPHIMURIUM, Strain/Indicator: TA100, Metabolic Activation: HAMSTER, LIVER, S-9, PCB, Method: PREINCUBATION) “inactive; negative”; (Test System: AMES SALMONELLA TYPHIMURIUM, Strain/Indicator: TA100, Metabolic Activation: MOUSE, LIVER, S-9, PCB, Method: PREINCUBATION) “inactive; negative”; under setting [3], “inactive; negative”; (Test System: AMES SALMONELLA TYPHIMURIUM, Strain/Indicator: TA100, Metabolic Activation: RAT, LIVER, S-9, PCB, Method: PREINCUBATION) “inactive; negative”.
With `C=Cc1ccc(O)c(OC)c1`, the mutagenic call by setting is: (Test System: AMES SALMONELLA TYPHIMURIUM, Strain/Indicator: TA98, Metabolic Activation: HAMSTER, LIVER, S-9, AROCLOR 1254, Method: STANDARD PLATE) “inactive; negative”; under setting [1], “inactive; negative”; (Test System: AMES SALMONELLA TYPHIMURIUM, Strain/Indicator: TA98, Metabolic Activation: RAT, LIVER, S-9, AROCLOR 1254, Method: STANDARD PLATE) “inactive; negative”; (Test System: AMES SALMONELLA TYPHIMURIUM, Strain/Indicator: TA100, Metabolic Activation: HAMSTER, LIVER, S-9, AROCLOR 1254, Method: STANDARD PLATE) “inactive; negative”; (Test System: AMES SALMONELLA TYPHIMURIUM, Strain/Indicator: TA100, Metabolic Activation: NONE, Method: STANDARD PLATE) “inactive; negative”; (Test System: AMES SALMONELLA TYPHIMURIUM, Strain/Indicator: TA100, Metabolic Activation: RAT, LIVER, S-9, AROCLOR 1254, Method: STANDARD PLATE) “inactive; negative”. For the same molecule, the mutagenic call is “inactive; negative” (Test System: AMES SALMONELLA TYPHIMURIUM, Strain/Indicator: TA1535, Metabolic Activation: HAMSTER, LIVER, S-9, AROCLOR 1254, Method: STANDARD PLATE); “inactive; negative” (Test System: AMES SALMONELLA TYPHIMURIUM, Strain/Indicator: TA1535, Metabolic Activation: NONE, Method: STANDARD PLATE); “inactive; negative” (Test System: AMES SALMONELLA TYPHIMURIUM, Strain/Indicator: TA1535, Metabolic Activation: RAT, LIVER, S-9, AROCLOR 1254, Method: STANDARD PLATE); “inactive; negative” (Test System: AMES SALMONELLA TYPHIMURIUM, Strain/Indicator: TA1537, Metabolic Activation: HAMSTER, LIVER, S-9, AROCLOR 1254, Method: STANDARD PLATE); “inactive; negative” (Test System: AMES SALMONELLA TYPHIMURIUM, Strain/Indicator: TA1537, Metabolic Activation: NONE, Method: STANDARD PLATE); “inactive; negative” (Test System: AMES SALMONELLA TYPHIMURIUM, Strain/Indicator: TA1537, Metabolic Activation: RAT, LIVER, S-9, AROCLOR 1254, Method: STANDARD PLATE). In addition, the mutagenic call (Test System: MOUSE LYMPHOMA, Strain/Indicator: L5178Y (TK+/TK-), Metabolic Activation: NONE, Method: SUSPENSION/PLATE) was “inactive; negative. reevaluation of results: equivocal” and the mutagenic call (Test System: MOUSE LYMPHOMA, Strain/Indicator: L5178Y (TK+/TK-), Metabolic Activation: RAT, LIVER, S-9, AROCLOR 1254, Method: SUSPENSION/PLATE) was “inactive; negative. reevaluation of results: negative”.
For the molecule `CCOP(=S)(OCC)Oc1nc(Cl)c(Cl)cc1Cl`, the mutagenic call reads like this: (End Point: In vitro chromosomal aberrations, Test System: Human lymphocytes, Metabolic Activation: None) “active; positive (structural changes and ploidy)”; under setting [2], “inactive; negative”; (Test System: AMES SALMONELLA TYPHIMURIUM, Strain/Indicator: TA98, Metabolic Activation: RAT, LIVER, S-9, AROCLOR 1254, Method: PREINCUBATION) “inactive; negative”; under setting [3], “inactive; negative”; (Test System: AMES SALMONELLA TYPHIMURIUM, Strain/Indicator: TA100, Metabolic Activation: RAT, LIVER, S-9, AROCLOR 1254, Method: PREINCUBATION) “inactive; negative”; (Test System: AMES SALMONELLA TYPHIMURIUM, Strain/Indicator: TA1535, Metabolic Activation: NONE, Method: PREINCUBATION) “inactive; negative”. For the same molecule, the mutagenic call is, setting by setting: (Test System: AMES SALMONELLA TYPHIMURIUM, Strain/Indicator: TA1535, Metabolic Activation: RAT, LIVER, S-9, AROCLOR 1254, Method: PREINCUBATION) “inactive; negative”; (Test System: AMES SALMONELLA TYPHIMURIUM, Strain/Indicator: TA1537, Metabolic Activation: NONE, Method: PREINCUBATION) “inactive; negative”; (Test System: AMES SALMONELLA TYPHIMURIUM, Strain/Indicator: TA1537, Metabolic Activation: RAT, LIVER, S-9, AROCLOR 1254, Method: PREINCUBATION) “inactive; negative”; (Test System: AMES SALMONELLA TYPHIMURIUM, Strain/Indicator: TA1538, Metabolic Activation: NONE, Method: PREINCUBATION) “inactive; negative”; (Test System: AMES SALMONELLA TYPHIMURIUM, Strain/Indicator: TA1538, Metabolic Activation: RAT, LIVER, S-9, AROCLOR 1254, Method: PREINCUBATION) “inactive; negative”; (Test System: CHINESE HAMSTER OVARY, Strain/Indicator: CHO-K1-BH4 (HGPRT)/6-THIOGUANINE, Metabolic Activation: NONE) “inactive; negative”. Also, the mutagenic call is “inactive; negative” (Test System: CHINESE HAMSTER OVARY, Strain/Indicator: CHO-K1-BH4 (HGPRT)/6-THIOGUANINE, Metabolic Activation: RAT, LIVER , S-9, AROCLOR 1254) and “inactive; negative” (Test System: UDS RAT PRIMARY HEPATOCYTES, Strain/Indicator: THY INCORP, Metabolic Activation: NONE, Method: AUTORADIOGRAPHY).
